Results: patent publication US9127016B2, “Small molecule inhibitors of Dusp6 and uses therefor” (University of Pittsburgh—Of the Commonwealth System of …, priority 2009, dated 2015)

Columns and labels:
PTP1B = biological target: T1, PTP1B (Homo sapiens, UniProt P18031); assay: OMFP phosphatase assay, PTP1B; assay type: biochemical; details: n=3, OMFP substrate, 15.2 nM-300 μM; read-out: mean in vitro values, PTP1B
T1 sequence (P18031 1-435): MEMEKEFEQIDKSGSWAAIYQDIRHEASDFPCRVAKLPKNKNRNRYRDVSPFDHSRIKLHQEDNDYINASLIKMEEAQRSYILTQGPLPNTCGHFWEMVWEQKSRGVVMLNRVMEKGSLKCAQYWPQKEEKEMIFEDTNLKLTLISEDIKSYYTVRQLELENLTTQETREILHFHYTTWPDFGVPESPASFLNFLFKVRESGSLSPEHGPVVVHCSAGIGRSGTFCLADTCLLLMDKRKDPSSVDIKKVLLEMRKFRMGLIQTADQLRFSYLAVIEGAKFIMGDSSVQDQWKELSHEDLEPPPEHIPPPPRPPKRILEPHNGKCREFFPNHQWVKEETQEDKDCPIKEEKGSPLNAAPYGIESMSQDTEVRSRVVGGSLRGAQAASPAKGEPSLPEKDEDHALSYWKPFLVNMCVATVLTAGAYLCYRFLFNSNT
Protocol: Enzyme activities in the presence or absence of BCI were measured using the artificial substrate […] at concentrations equal to the Km of each enzyme (Cdc25B, PTP1B & Dusp3/VHR) and at optimal pH for individual enzyme activity in a 96-well microtiter plate assay based on previously described methods by Lazo et al. (J Med Chem 44, 4042-9 (2001) and Lazo, J. S. et al. Bioorg Med Chem 14, 5643-50 (2006)). Briefly, the standard assay conditions contained 0.02 mg/ml OMFP in assay buffer (30 mM Tris-HCl (pH8.0), 75 mM NaCl, 1 mM EDTA, 0.33% BSA and 1 mM DTT). Fluorescence emission was measured after a sixty-minute incubation period at ambient temperature using a multiwell plate reader (SpectraMax m5, […]; excitation 485 nm, emission 525 nm). Sodium orthovanadate (100 μM) was used as a positive control for full phosphatase inhibition. IC50 concentrations were determined from three experiments using 10 concentrations of BCI ranging from 300 μM to 15.2 nM and GraphPad Prism 5.0 software.

Dusp6 = biological target: T2, Dusp6 (Danio rerio, UniProt Q7T2L8); assay: Zebrafish mRNA microinjection, rescue of sef expression, dusp6; assay type: in vivo; details: 5 μM BCI, shield stage
T2 construct: expressed in transfected cells; host or cells: zebrafish embryos, 500 pg mRNA injected at the 1-2 cell stage
T2 sequence (Q7T2L8 1-382): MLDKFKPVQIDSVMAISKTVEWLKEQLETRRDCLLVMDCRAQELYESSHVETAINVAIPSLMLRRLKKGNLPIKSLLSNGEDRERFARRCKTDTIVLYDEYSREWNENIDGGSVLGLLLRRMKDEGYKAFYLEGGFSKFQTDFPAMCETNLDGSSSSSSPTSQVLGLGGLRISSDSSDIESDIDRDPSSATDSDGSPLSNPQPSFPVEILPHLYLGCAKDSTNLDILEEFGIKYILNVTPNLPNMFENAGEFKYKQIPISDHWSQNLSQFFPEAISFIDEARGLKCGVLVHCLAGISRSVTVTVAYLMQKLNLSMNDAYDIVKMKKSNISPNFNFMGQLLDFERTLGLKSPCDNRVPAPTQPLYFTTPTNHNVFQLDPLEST
Protocol: dusp6 and XFD mRNA for microinjection studies were generated as previously described (Tsang, M. et al. Development 131, 2769-79 (2004)). Both Dusp5 and Spry4 ORFs were amplified by RT-PCR from 24 hpf zebrafish with the following primers: […]
Amplified PCR products were subcloned into pCS2+, sequenced verified and mRNAs were synthesized as described previously. Embryos were injected with 500 pg mRNA at the 1-2 cell stage, treated with 5 μM BCI at the 1000-cell stage and fixed at shield stage for in situ hybridization.
In situ hybridization experiments were carried out as described previously (Kudoh, T. et al. Genome Res 11, 1979-87 (2001)). The probes eng3, krox20, sef, dusp6, gata4, nkx2.5, cmlc2, vmhc, scl, etsrp and hand2 were generated with a RNA labeling kit (Roche) (Tsang, M. et al. Development 131, 2769-79 (2004); Chen, J. N. et al. Development 122, 3809-16 (1996); Ekker, M., et al. Development 116, 1001-10 (1992); Liao, E. C. et al. Genes Dev 12, 621-6 (1998); Oxtoby, E. et al. Nucleic Acids Res 21, 1087-95 (1993); Pham, V. N. et al. Dev Biol 303, 772-83 (2007); Tsang, M., et al. Nat Cell Biol 4, 165-9 (2002); Yelon, D., et al. Dev Biol 214, 23-37 (1999); and Yelon, D. et al. Development 127, 2573-82 (2000)). The double fluorescent in situ hybridization protocol was described by Schoenbeck et al. (Dev Cell 13, 254-67 (2007)). […]

zebrafish embryo = assay: Zebrafish embryo survival after prolonged exposure; assay type: in vivo
Protocol: We next addressed if BCI and related analogs are detrimental to zebrafish embryo survival after prolong exposure. […] The percentage of embryos that died after 24 hours treatment was 100% at 20 μM.

O=C1/C(=C/c2ccccc2)C(NC2CCCCC2)c2ccccc21 (stereo not shown) [Compound 3, (E)-2-benzylidene-3-(cyclohexylamino)-2,3-dihydro-1H-inden-1-one]
IC50 (PTP1B): > 300 µM | sef expression in dusp6-injected embryos (Dusp6): rescued sef expression to control levels or higher | percentage of embryos that died after 24 hours treatment (zebrafish embryo; 20 μM, 24 hours): 100% | effect of prolonged exposure on embryos (zebrafish embryo; high doses (>10 μM) for 24 hours): embryo defects, such as tail necrosis and even death
